Test results from the METLIN SMRT retention time set (Domingo-Almenara et al. 2019).

Assay: gradient 5% acetonitrile 3 min, to 50% in 2 min, to 85% in 15 min, held 3 min, 100 µL/min
Details: column: Zorbax Extend-C18 2.1 x 50 mm; eluents: water / acetonitrile, 0.1% formic acid
In short: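 The mobile phases were water and acetonitrile, each with 0.1% formic acid, pumped at 100 μL/min through a Zorbax Extend-C18 column (2.1 × 50 mm, 1.8 μm). Pure standards were injected as mixtures of ~100 molecules and detected by a quadrupole time-of-flight mass spectrometer in positive and negative ionization mode. Retention time came from computationally picked adduct peaks, each inspected by hand.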

RP-LC retention time [s] | SMILES
661 | Cc1noc(COC2CCN(C(=O)CCc3c(C)noc3C)CC2)n1
705 | O=C(Cc1ccccc1Cl)Nc1nnc(C2CC(=O)N(c3ccc(F)cc3)C2)o1 (configuration not stated)
905 | O=C(NCCc1csc(-c2cccc(F)c2)n1)c1cccs1
829 | COc1ccccc1NC(=O)C1CC(=O)N(CCc2c[nH]c3ccc(Cl)cc23)C1 (configuration not stated)
962 | Fc1cccc(Cn2cc(-c3noc(-c4ccc5c(c4)OCO5)n3)nn2)c1
1240 | Cc1ccc(-c2csc(Nc3ccccc3C)n2)cc1
897 | c1ccc2c(c1)-c1cccc3cncc-2c13
747 | CCN1CCN(c2cc(C)c3cc(NC(=O)/C=C/c4ccc(OCCC(C)C)cc4)ccc3n2)CC1
755 | Cc1nc(C)c(C(=O)Nc2ccc(F)cc2F)s1
871 | Cc1nnc2ccc(-c3noc(-c4ccc5c(c4)OCO5)n3)cn12
756 | CC(C)C(=O)N1CCc2[nH]nc(C(=O)NCCCc3ccccc3)c2C1
673 | CN(C)C(=O)c1n[nH]c2c1CN(C(=O)c1cccc(C(F)(F)F)c1)CC2
980 | CCOc1ccccc1NC(=O)c1ccc(=O)n(Cc2ccccc2)n1
713 | c1ccc(CCc2nc3nccc(-c4ccncc4)n3n2)cc1
642 | O=C(NCCn1ncccc1=O)Nc1ccccc1C(F)(F)F
644 | CCN(CC)C(=O)Cn1cc(C(=O)C(=O)N2CCc3ccccc3C2)c2ccccc21
1160 | CCCN1C(=O)COc2ccc(-c3noc(-c4cncc(Br)c4)n3)cc21
984 | O=C(Nc1cnc(N2CCCCC2)nc1)c1cc(F)cc(F)c1
675 | CC(C(=O)N1CCN(c2ccccn2)CC1)C1CCN(C(=O)c2cc3cc(Cl)ccc3[nH]2)CC1 (configuration not stated)
1100 | Cc1ccc(SCC(=O)Nc2nc(-c3ccccc3)cs2)cc1
612 | CCCCNc1ncc(C(=O)O)c(-c2ccncc2)n1
678 | O=C(Cn1nc2n(c1=O)CCCC2)NCCc1ccc(Cl)cc1

RP-LC retention time [s] | SMILES
580 | Cc1noc2ncnc(NCCN(C)Cc3ccccc3)c12
885 | COc1ccc(S(=O)(=O)N2CCC(C(=O)NCc3csc(-c4ccccc4)n3)CC2)cc1
838 | COCCN(CC1(C)CCOCC1)C(=O)c1ccc(Cl)cc1
587 | COc1ccc(S(=O)Cc2ccc(C(=O)NCCCN3CCCCC3)o2)cc1 (configuration not stated)
590 | Cn1nc(C(=O)N2CCCCC2)c2c1CCN(C(=O)CCC(=O)NCCN1CCCCCC1)C2
945 | CCS(=O)(=O)c1ccc2c(c1)N(Cc1nc(-c3ccc(C)cc3)no1)C(=O)CO2
632 | O=C(NCc1cccs1)C1CCN(c2cnc3nccnc3c2)CC1
770 | CCn1ccc(C(=O)NCC23CCC=C2N(CC2CC2)C(=O)CC3)n1 (configuration not stated)
1020 | Cc1ccc(S(=O)(=O)N2C[C@@H](F)C[C@H]2C(=O)N2CCc3ccccc3C2)cc1Cl
660 | CCC1CN(C(=O)N2CCC(C(=O)NCCN3CCCCCC3)CC2)c2ccccc2O1 (configuration not stated)
646 | CCn1c(=O)c(N2CCC(C(=O)NCCN3CCCCCC3)CC2)nc2cccnc21
870 | COc1ccc(N2C(=O)N[C@@H]3C[C@]2(C)Oc2ccc(C)cc23)c(OC)c1
1100 | CCOC(=O)c1nnc2c(-c3ccc(Br)cc3)c(C)nn2c1C
605 | Cc1cnc(-c2ccncc2)n1C1CCN(S(=O)(=O)c2ccc3c(c2)CCC3)C1 (configuration not stated)
1030 | Cc1cc(C)cc(OCc2nc(CCN(C)C(=O)COc3ccccc3)no2)c1
698 | O=C(c1ccccc1F)N1CCCCC1c1nncn1CC1CC1 (configuration not stated)
847 | Cc1ccc(-c2csc3c(=O)n(Cc4cc(=O)n5ccccc5n4)cnc23)cc1
802 | CCc1ccccc1NC(=O)C1CCCN(c2ncnc3c2nc2n3CCCCC2)C1 (configuration not stated)
904 | COc1cccc(CNS(=O)(=O)c2ccc(-c3c(C)noc3C)cc2)c1
653 | Cc1ccc(NC(=O)N2CCC(C(C)C(=O)Nc3cc(F)ccc3F)CC2)cc1 (configuration not stated)
629 | Cn1cc(-c2cc3n(n2)CCCN3C(=O)CCC(=O)NCc2ccccn2)c2ccccc21
921 | COc1ccc(NC(=O)C2CCN(S(C)(=O)=O)c3ccccc3O2)cc1Cl (configuration not stated)

RP-LC retention time [s] | SMILES
641 | Cn1cnc2c(C(=O)NCC3CCCO3)nn(-c3ccccc3)c2c1=O (configuration not stated)
966 | COc1ccc(-c2noc(-c3nc(-c4ccccn4)no3)n2)cc1
919 | CC1CCN(C(=O)C2=CN(c3ccccc3)c3ccccc3S2(=O)=O)CC1
1130 | CCOc1ccc2cccc(NC(=O)Cc3cccs3)c2n1
933 | O=C1CC(c2nc(-c3ccccc3Cl)no2)CN1c1ccc2c(c1)OCO2 (configuration not stated)
895 | COc1cccc(-c2ccc3nc(N4CCC(C(=O)NC(C)C)CC4)sc3n2)c1
995 | Cc1nc(-c2ccccc2)cc2nn(CC(=O)Nc3ccccc3Br)c(=O)n12
703 | CCC(=O)NCc1csc(C2CCCN(C(=O)CC(C)(C)C)C2)n1 (configuration not stated)
945 | O=C1C2N=NN(Cc3nc(-c4ccccc4)no3)C2C(=O)N1c1ccc(F)cc1 (configuration not stated)
1090 | Cc1cc(C)cc(NC(=O)C2CCCN(c3nc4ccsc4c(=O)n3Cc3ccc(F)cc3)C2)c1 (configuration not stated)
1130 | O=C(NCc1ccccc1)N1CC(Oc2cccc(-c3nc(-c4ccccc4)no3)c2)C1
633 | O=C(c1cc(-c2cccnc2)n[nH]1)N1CCN(C(=O)c2cc3ccccc3[nH]2)CC1
863 | CCC(C)(C)NS(=O)(=O)c1cc(-c2nc(C)c(C(=O)N3CCCC3)s2)cs1
748 | Fc1ccccc1-c1noc(NCC2CCCO2)n1 (configuration not stated)
1080 | O=S(=O)(NCc1nc(-c2cccc(-c3csc(C4CC4)n3)c2)no1)c1ccccc1
674 | CN1CCN(C(=O)C2CCN(c3nc4ccc(-c5ccc(F)cc5)nc4s3)CC2)CC1
911 | CCCc1sc(NCc2cccc(OC)c2O)nc1-c1cc(C)ccc1C
884 | Cc1cc(N2CCN(S(=O)(=O)c3ccc(Cl)cc3)CC2)nc(NC2CCCCC2)n1
932 | CCn1nccc1-c1cccc(-c2noc(C3CCN(S(=O)(=O)c4ccc(Cl)cc4)CC3)n2)c1
963 | CC1Cc2ccccc2N1C(=O)Cn1c(=O)n(C(C)C)c2ccc(S(=O)(=O)N3CCCC3)cc21 (configuration not stated)
800 | CCc1nn2c(=O)cc(CSc3nnc(-c4cccc(C)c4)o3)nc2s1

SMILES | RP-LC retention time [s]
Cc1ncc2c(n1)C[C@@H]1CC[C@H]2N1C(=O)COc1ccccc1 | 669
COc1ccc2c(c1)C1(CCN(C(=O)NC3CCCCC3)C1)C(=O)N2 (configuration not stated) | 703
